Laboratory results reported in ChEMBL document CHEMBL1201862, “PubChem BioAssay data set” (2004).
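1) Cells in 96-well plates. 2) Compound, 48 h, 5 concentrations. 3) Linear interpolation between surrounding doses. 4) Unreached endpoint = highest concentration. At the GI50, growth is halved.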 Active and inactive are the calls of the source. Cut-off read from the data, not from the text of the source: active = GI50 up to about 1.1 µM and inactive = higher.

Legend:
Test in all cases: NCI-60 cell line screen, 48 h
786-0 = system: 786-0
A498 = system: A498
A549 = system: A549
ACHN = system: ACHN
BT-549 = system: BT-549
CAKI-1 = system: CAKI-1
CCRF-CEM = system: CCRF-CEM
COLO 205 = system: COLO 205
DU-145 = system: DU-145
EKVX = system: EKVX
HCC 2998 = system: HCC 2998
HCT-116 = system: HCT-116
HCT-15 = system: HCT-15
HL-60 = system: HL-60
HOP-62 = system: HOP-62
HOP-92 = system: HOP-92
HT-29 = system: HT-29
Hs-578T = system: Hs-578T
IGROV-1 = system: IGROV-1
K562 = system: K562
KM12 = system: KM12
LOX IMVI = system: LOX IMVI
M14 = system: M14
MCF7 = system: MCF7
MDA-MB-231 = system: MDA-MB-231
MDA-MB-435 = system: MDA-MB-435
MDA-N = system: MDA-N
MOLT-4 = system: MOLT-4
NCI-H226 = system: NCI-H226
NCI-H23 = system: NCI-H23
NCI-H460 = system: NCI-H460
NCI-H522 = system: NCI-H522
NCI/ADR-RES = system: NCI/ADR-RES
OVCAR-3 = system: OVCAR-3
OVCAR-5 = system: OVCAR-5
OVCAR-8 = system: OVCAR-8
PC-3 = system: PC-3
RPMI-8226 = system: RPMI-8226
RXF 393 = system: RXF 393
SF-268 = system: SF-268
SF-295 = system: SF-295
SF-539 = system: SF-539
SK-MEL-28 = system: SK-MEL-28
SK-MEL-2 = system: SK-MEL-2
SK-MEL-5 = system: SK-MEL-5
SN12C = system: SN12C
SNB-19 = system: SNB-19
SNB-75 = system: SNB-75
SR = system: SR
SW-620 = system: SW-620
T47D = system: T47D
TK-10 = system: TK-10
U-251 = system: U-251
UACC-257 = system: UACC-257
UACC-62 = system: UACC-62
UO-31 = system: UO-31

SMILES: CN(C)Cc1cc(C(=O)/C=C/c2ccc(O)cc2)cc(CN(C)C)c1O
- GI50 (786-0): 34.4 µM (inactive)
- GI50 (A498): 31.8 µM (inactive)
- GI50 (A549): > 100 µM (inactive)
- GI50 (ACHN): 20.9 µM (inactive)
- GI50 (BT-549): 79.4 µM (inactive)
- GI50 (CAKI-1): 28.8 µM (inactive)
- GI50 (CCRF-CEM): 24.8 µM (inactive)
- GI50 (COLO 205): 19.4 µM (inactive)
- GI50 (DU-145): 53.6 µM (inactive)
- GI50 (EKVX): 70 µM (inactive)
- GI50 (HCC 2998): 79.4 µM (inactive)
- GI50 (HCT-116): 38.2 µM (inactive)
- GI50 (HCT-15): 44.5 µM
- GI50 (HL-60): 19.1 µM (inactive)
- GI50 (HOP-62): 38 µM (inactive)
- GI50 (HOP-92): 30.2 µM (inactive)
- GI50 (HT-29): 79.3 µM (inactive)
- GI50 (Hs-578T): 60.5 µM (inactive)
- GI50 (IGROV-1): 45.4 µM (inactive)
- GI50 (K562): 29.5 µM (inactive)
- GI50 (KM12): 24.4 µM (inactive)
- GI50 (LOX IMVI): 29.7 µM (inactive)
- GI50 (M14): 27.6 µM (inactive)
- GI50 (MCF7): 43.2 µM (inactive)
- GI50 (MDA-MB-231): 25.2 µM (inactive)
- GI50 (MDA-MB-435): 35.4 µM (inactive)
- GI50 (MDA-N): 37.7 µM (inactive)
- GI50 (MOLT-4): 26.7 µM (inactive)
- GI50 (NCI-H226): > 100 µM (inactive)
- GI50 (NCI-H23): 79.6 µM (inactive)
- GI50 (NCI-H460): 23.7 µM (inactive)
- GI50 (NCI-H522): 23.4 µM (inactive)
- GI50 (NCI/ADR-RES): > 100 µM (inactive)
- GI50 (OVCAR-3): 18.9 µM (inactive)
- GI50 (OVCAR-5): 42.1 µM (inactive)
- GI50 (OVCAR-8): 81.7 µM (inactive)
- GI50 (PC-3): 47.4 µM (inactive)
- GI50 (RPMI-8226): 17.9 µM (inactive)
- GI50 (RXF 393): 59.8 µM (inactive)
- GI50 (SF-268): 72.4 µM (inactive)
- GI50 (SF-295): 86.3 µM (inactive)
- GI50 (SF-539): 55 µM (inactive)
- GI50 (SK-MEL-28): 25.9 µM (inactive)
- GI50 (SK-MEL-2): 30.3 µM (inactive)
- GI50 (SK-MEL-5): 18.5 µM (inactive)
- GI50 (SN12C): 23 µM (inactive)
- GI50 (SNB-19): > 100 µM (inactive)
- GI50 (SNB-75): 26.7 µM (inactive)
- GI50 (SR): 23.1 µM (inactive)
- GI50 (SW-620): 39.4 µM (inactive)
- GI50 (T47D): 49.9 µM (inactive)
- GI50 (TK-10): 53.7 µM (inactive)
- GI50 (U-251): 16 µM (inactive)
- GI50 (UACC-257): 46.2 µM (inactive)
- GI50 (UACC-62): 36.6 µM (inactive)
- GI50 (UO-31): 63 µM (inactive)
